Key:
MOLM-13 cell line = assay: MOLM-13 cell proliferation assay (alamarBlue); format: cell-based; conditions: Homo sapiens, inhibition of proliferation of MOLM-13 cells (acute myeloid leukaemia), 96 hours incubation
Method in brief: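 MOLM-13 (human AML) cells were treated with compound dilutions for 96 h at 37 °C after overnight plating, and viability was read by alamarBlue fluorescence (ex 530/em 590 nm). Pre-treatment readings were subtracted from end-point readings, and IC50 was calculated relative to buffer-only controls.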

[1] = biological target: T1, BRD4 bromo domain 1 [BRD4(1)] (Homo sapiens, UniProt O60885); assay: BRD4(1)/acetylated peptide H4 binding assay (TR-FRET); conditions: inhibition of interaction between His6-tagged BRD4(1) (amino acids 67-152) and acetylated histone H4 peptide
T1 construct: N-terminally His6-tagged BRD4(1) (amino acids 67-152); made in house; host or cells: E. coli
Method in brief: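 IC50 came from a 4-parameter fit of the 665/620 nm emission ratio, normalised to DMSO and no-protein controls. His6-tagged BRD4(1) residues 67-152 (typically 10 nM final) was preincubated 10 min with compound (0.1 nM to 20 μM, duplicates), then exposed to Ac-H4-biotin peptide at 22 °C for 1 h and 4 °C for at least 3 h.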

[2] = biological target: T2, BRD4 bromo domain 2 [BRD4(2)] (Homo sapiens, UniProt O60885); assay: BRD4(2)/acetylated peptide H4 binding assay (TR-FRET); conditions: inhibition of interaction between His6-tagged BRD4(2) (amino acids 357-445) and acetylated histone H4 peptide
T2 construct: N-terminally His6-tagged BRD4(2) (amino acids 357-445); made in house; host or cells: E. coli
Method in brief: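 Compounds (0.1 nM to 20 μM, 11 points, duplicates) preincubated 10 min at 22 °C with 100 nM His6-tagged BRD4(2) residues 357-445, then Ac-H4-biotin peptide added; incubated 1 h at 22 °C and 3 h-overnight at 4 °C. Eu/XL665 emission ratio normalised to DMSO and no-protein controls; 4-parameter IC50.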

| Structure (SMILES) | IC50 (MOLM-13 cell line) | IC50 [1] | IC50 [2] |
| --- | --- | --- | --- |
| COc1cc(C(=O)NC2CCN(C(C)=O)CC2)ccc1Nc1ccc2c(n1)N(Cc1ccccc1)[C@H](C)C(=O)N2C [Example 77, N-(1-Acetylpiperidin-4-yl)-4-{[(3R)-4-benzyl-1,3-dimethyl-2-oxo-1,2,3,4-tetrahydropyrido[2,3-b]pyrazin-6-yl]amino}-3-methoxybenzamide] | 242 nM | 55 nM | 103 nM |
| C[C@@H]1C(=O)N(C)c2ccc(Nc3ccc(C(=O)NCCN4CCN(C)CC4)cc3)nc2N1Cc1ccccc1 [Example 81, 4-{[(3R)-4-Benzyl-1,3-dimethyl-2-oxo-1,2,3,4-tetrahydropyrido[2,3-b]pyrazin-6-yl]amino}-N-[2-(4-methylpiperazin-1-yl)ethyl]benzamide] | 96 nM | 89 nM | 23 nM |
| COc1cc(C(=O)N2CC3(COC3)C2)ccc1Nc1ccc2c(n1)N(Cc1ccccc1)[C@H](C)C(=O)N2C [Example 83, (3R)-4-Benzyl-6-{[2-methoxy-4-(2-oxa-6-azaspiro[3.3]hept-6-ylcarbonyl)phenyl]amino}-1,3-dimethyl-3,4-dihydropyrido[2,3-b]pyrazin-2(1H)-one] | 122 nM | 133 nM | 61 nM |
| COc1cc(C(=O)NCCN2CCN(C)CC2)ccc1Nc1ccc2c(n1)N(C1CCCCCC1)[C@H](C)C(=O)N2C [Example 91, 4-{[(3R)-4-Cycloheptyl-1,3-dimethyl-2-oxo-1,2,3,4-tetrahydropyrido[2,3-b]pyrazin-6-yl]amino}-3-methoxy-N-[2-(4-methylpiperazin-1-yl)ethyl]benzamide] | 353 nM | 154 nM | 135 nM |
| CC(C)N1CCN(S(=O)(=O)c2ccc(Nc3ccc4c(n3)N(C3CCCC3)[C@H](C)C(=O)N4C)cc2)CC1 [Example 102, (3R)-4-Cyclopentyl-1,3-dimethyl-6-[(4-{[4-(propan-2-yl)piperazin-1-yl]sulphonyl}phenyl)amino]-3,4-dihydropyrido[2,3-b]pyrazin-2(1H)-one] | 214 nM | 100 nM | 90 nM |
| CC1C(=O)N(C)c2ccc(Nc3ccc(S(=O)(=O)NC4CCN(C)CC4)cc3)nc2N1c1ccccc1 (stereo not drawn) [Example 107, 4-[(1,3-Dimethyl-2-oxo-4-phenyl-1,2,3,4-tetrahydropyrido[2,3-b]pyrazin-6-yl)amino]-N-(1-methylpiperidin-4-yl)benzenesulphonamide] | 255 nM | 201 nM | 241 nM |

More lines, in order of falling IC50 (MOLM-13 cell line), values ahead:

| IC50 (MOLM-13 cell line) | IC50 [1] | IC50 [2] | Structure (SMILES) |
| --- | --- | --- | --- |
| 350 nM | 149 nM | 82 nM | C[C@@H]1C(=O)N(C)c2ccc(Nc3ccc(C(=O)N4CC5(CCS5(=O)=O)C4)cc3)nc2N1Cc1ccccc1 [Example 75, (3R)-4-Benzyl-6-({4-[(1,1-dioxido-1-thia-6-azaspiro[3.3]hept-6-yl)carbonyl]phenyl}amino)-1,3-dimethyl-3,4-dihydropyrido[2,3-b]pyrazin-2(1H)-one] |
| 336 nM | 156 nM | 71 nM | CC(C)N1c2nc(Nc3ccc(S(=O)(=O)N(C)C)cc3)ccc2N(C)C(=O)[C@H]1C [Example 100, 4-{[(3R)-1,3-Dimethyl-2-oxo-4-(propan-2-yl)-1,2,3,4-tetrahydropyrido[2,3-b]pyrazin-6-yl]amino}-N,N-dimethylbenzenesulphon-amide] |
| 316 nM | 145 nM | 104 nM | CC(C)N1c2nc(Nc3ccc(S(=O)(=O)N4CCN(C)CC4)cc3)ccc2N(C)C(=O)[C@H]1C [Example 99, (3R)-1,3-Dimethyl-6-({4-[(4-methylpiperazin-1-yl)sulphonyl]phenyl}amino)-4-(propan-2-yl)-3,4-dihydropyrido[2,3-b]pyrazin-2(1H)-one] |
| 282 nM | 120 nM | 51 nM | COc1cc(C(=O)NC2CCC(O)CC2)ccc1Nc1ccc2c(n1)N(Cc1ccccc1)[C@H](C)C(=O)N2C (stereo partly drawn) [Example 79, 4-{[(3R)-4-Benzyl-1,3-dimethyl-2-oxo-1,2,3,4-tetrahydropyrido[2,3-b]pyrazin-6-yl]amino}-N-(4-hydroxycyclohexyl)-3-methoxybenzamide] |
| 243 nM | 153 nM | 111 nM | CC(=O)N1CCC(NC(=O)c2ccc(Nc3ccc4c(n3)N(Cc3ccccc3)[C@H](C)C(=O)N4C)cc2)CC1 [Example 78, N-(1-Acetylpiperidin-4-yl)-4-{[(3R)-4-benzyl-1,3-dimethyl-2-oxo-1,2,3,4-tetrahydropyrido[2,3-b]pyrazin-6-yl]amino}benzamide] |
| 226 nM | 134 nM | 105 nM | CC(C)N1c2nc(Nc3ccc(S(=O)(=O)N4CCOCC4)cc3)ccc2N(C)C(=O)[C@H]1C [Example 101, (3R)-1,3-Dimethyl-6-{[4-(morpholin-4-ylsulphonyl)phenyl]amino}-4-(propan-2-yl)-3,4-dihydropyrido[2,3-b]pyrazin-2(1H)-one] |
| 177 nM | 78 nM | 51 nM | C[C@@H]1C(=O)N(C)c2ccc(Nc3ccc(S(=O)(=O)N(C)C)cc3)nc2N1C1CCCC1 [Example 103, 4-{[(3R)-4-Cyclopentyl-1,3-dimethyl-2-oxo-1,2,3,4-tetrahydropyrido[2,3-b]pyrazin-6-yl]amino}-N,N-dimethylbenzenesulphonamide] |
| 170 nM | 137 nM | 138 nM | COc1cc(C(=O)N2CCN(C(C)C)CC2)ccc1Nc1ccc2c(n1)N(Cc1ccccc1)[C@H](C)C(=O)N2C [Example 80, (3R)-4-Benzyl-6-[(2-methoxy-4-{[4-(propan-2-yl)piperazin-1-yl]carbonyl}phenyl)amino]-1,3-dimethyl-3,4-dihydro pyrido[2,3-b]pyrazin-2(1H)-one] |
| 131 nM | 40 nM | 48 nM | COc1cc(C(=O)NCCN2CCN(C)CC2)ccc1Nc1ccc2c(n1)N(Cc1ccccc1)[C@H](C)C(=O)N2C [Example 82, 4-{[(3R)-4-Benzyl-1,3-dimethyl-2-oxo-1,2,3,4-tetrahydropyrido[2,3-b]pyrazin-6-yl]amino}-3-methoxy-N-[2-(4-methylpiperazin-1-yl)ethyl]benzamide] |

Reference: patent US20160193206A1, “BET-PROTEIN-INHIBITING DIHYDROPYRIDOPYRAZINONES” (BAYER PHARMA AKTIENGESELLSCHAFT, priority 2012, published 2016)
